Data set [1] relates to KHYG-1 NK cell-mediated lysis of K562 cells. Kind of data set: Inhibition of KHYG-1 NK cell-mediated lysis of K562 cells (51Cr release). It counts as cell-based. To be noted: K562 target cells, Effector:Target 2:1, 4 hours at 37° C.; for inhibition at 20 µM: 4 h. In a few lines:
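KHYG-1 effector cells pretreated with compound (up to 20 µM) for 20 min at RT. 51Cr-labelled K562 targets were then added at effector:target 2:1 and incubated 4 h at 37 °C. 51Cr release was gamma-counted and expressed as % specific cytotoxicity.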

In data set [2] the test system is NK and perforin-mediated bone marrow rejection. The data set is described as follows: In vivo inhibition of perforin-mediated bone marrow rejection. To be noted: 120 mg/kg intra-peritoneal once daily day -2 to day +1; Balb/c bone marrow transplant; blood day +1. More on the design: species or system C57Bl/6 mice. Here is the method: In Vivo Inhibition of Perforin-Mediated Bone Marrow Rejection.
On day 0 mice received 12×106 Balb/c (CD45.2+) CFSE labelled bone marrow as well as 12×106 B6.PTP (CD45.1+) bone marrow. On day +1 blood was collected for in vivo cytotoxicity assays looking at the ratio of recipient (CD45.1+) versus donor cells (CFSE+) (FIG. 1). Results are illustrated in FIG. 2 as two experiments combined with n=6, 10, 10, 4 and 3/group. […] Statistically significant differences were calculated using two-tailed t tests between groups.

Data set [3] concerns the target recombinant perforin (UniProt P10820). In kind it is cell-based. In a few lines: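 Jurkat T lymphoma cells labelled with 51Cr for 1 h, washed, then exposed to recombinant perforin with compound in RPMI plus 0.1% BSA. Lysis measured as 51Cr release. IC50 from a concentration range run in triplicate.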
[4] abbreviates: lysis of Jurkat T lymphoma cells by recombinant perforin, 0.1% BSA, 30 min pre-incubation, 4 hours at 37° C.; read-out: Jurkat IC50.

We go through 5 compounds from patent US9896443B2, “Perforin inhibiting benzenesulfonamide compounds, preparation and uses thereof” (Peter MacCallum Cancer Institute, priority 2012, dated 2018).

Where a name gives a salt, the structure may show the parent alone. Read-outs that look alike come from different tables or passages of the source. Where only a bound is given, the exact number is not on record here.

Chain of recombinant perforin (P10820 whole entry): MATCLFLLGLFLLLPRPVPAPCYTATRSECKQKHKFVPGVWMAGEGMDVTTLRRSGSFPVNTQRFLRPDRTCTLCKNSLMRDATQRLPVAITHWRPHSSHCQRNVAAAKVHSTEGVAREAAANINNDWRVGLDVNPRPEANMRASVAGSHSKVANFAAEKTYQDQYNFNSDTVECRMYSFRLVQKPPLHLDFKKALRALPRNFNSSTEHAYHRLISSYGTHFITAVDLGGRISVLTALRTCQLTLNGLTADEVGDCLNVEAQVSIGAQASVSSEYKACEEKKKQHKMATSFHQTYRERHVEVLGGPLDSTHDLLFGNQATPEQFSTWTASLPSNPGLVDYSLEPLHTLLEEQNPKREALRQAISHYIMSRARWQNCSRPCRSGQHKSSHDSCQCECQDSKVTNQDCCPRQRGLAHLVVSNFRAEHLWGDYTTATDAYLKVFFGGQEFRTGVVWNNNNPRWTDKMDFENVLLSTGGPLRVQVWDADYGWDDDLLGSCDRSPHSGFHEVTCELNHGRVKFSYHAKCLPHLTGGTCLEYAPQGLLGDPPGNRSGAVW

Regarding `CN1Cc2cc(-c3ccc(-c4cncc(NS(=O)(=O)c5ccc(F)cc5F)c4)s3)ccc2C1=O` [Compound 1.Na, 2,4-Difluoro-N-(5-(5-(2-methyl-1-oxoisoindolin-5-yl)thiophen-2-yl)pyridin-3-yl)benzenesulfonamide, sodium salt], the “Inhibition of KHYG-1 at 20 μM (%)” value in data set [1] (sodium salt) was found to be 48%. Also, the “inhibition of NK and perforin-mediated bone marrow rejection” value in data set [2] is “able to inhibit NK and perforin-mediated bone marrow rejection”.

One may read the IC50 as the concentration that inhibits the measured activity by half. Broadly, the inhibition is the change of the read-out against control, counted positive when it falls. In general, melting point refers to the temperature of the solid-liquid transition. `CN1Cc2cc(-c3ccc(-c4cccc(NS(=O)(=O)c5ccc(F)cc5F)c4)s3)ccc2C1=O` [Compound 43, 2,4-Difluoro-N-(3-(5-(2-methyl-1-oxoisoindolin-5-yl)thiophen-2-yl)phenyl)benzene sulphonamide] yielded a melting point of 260 to 262 °C. For the same compound, in data set [3] (setting [4]), the concentration for half-maximal inhibition (IC50) came out at 5.74 µM. For the same compound, at 20 µM the inhibition in data set [1] was 18%.

As to `COc1ccc(S(=O)(=O)Nc2cncc(-c3ccc(-c4ccc5c(c4)CN(C)C5=O)s3)c2)cc1` [Compound 20, 4-Methoxy-N-(5-(5-(2-methyl-1-oxoisoindolin-5-yl)thiophen-2-yl)pyridin-3-yl)benzenesulfonamide], the melting point was 254 to 258 °C. The IC50 in data set [3] (setting [4]) stood at 6.27 µM. Moreover, at 20 µM the inhibition in data set [1] was 24%.

On to `CC(=O)c1cn(C)c2ccc(-c3ccc(-c4cncc(NS(=O)(=O)c5ccc(F)cc5F)c4)s3)cc12` [Compound 59, N-(5-(5-(3-Acetyl-1-methyl-1H-indol-5-yl)thiophen-2-yl)-pyridin-3-yl)-2,4-difluorobenzenesulfonamide], for which the melting point is 241 to 244 °C. Besides, the IC50 in data set [3] (read-out: Jurkat IC50; lysis of Jurkat T lymphoma cells by recombinant perforin, 0.1% BSA, 30 min pre-incubation, 4 hours at 37° C.) was 11.2 µM. In data set [1], the inhibition at 20 µM turned out to be 72%.

`CN1Cc2cc(-c3ccc(-c4ccc(OC(F)(F)F)c(NS(=O)(=O)c5ccccn5)c4)s3)ccc2C1=O` [Compound 63, N-(5-(5-(2-Methyl-1-oxoisoindolin-5-yl)thiophen-2-yl)-2-(trifluoromethoxy)phenyl)pyridine-2-sulfonamide] returned a melting point of 200 to 201 °C. Besides, the IC50 in data set [3] (setting [4]) was above 20 µM. Also, the “Inhibition of KHYG-1 at 20 μM (%)” value in data set [1] was found to be 56.14 ± 9%.
